In BigSolDB 2.1:

**Q.** Which results are given for `CC12CC3CC(C)(C1)CC(NS(=O)(=O)c1ccc([N+](=O)[O-])cc1)(C3)C2`?
**A.** solubility (mole fraction) (in n-hexane, 293.15 K): 4.22e-05; solubility (mole fraction) (in n-hexane, 298.15 K): 5.67e-05; solubility (mole fraction) (in n-hexane, 303.15 K): 6.92e-05; solubility (mole fraction) (in n-hexane, 308.15 K): 8.55e-05; solubility (mole fraction) (in n-hexane, 313.15 K): 0.000105; solubility (mole fraction) (in n-octanol, 293.15 K): 0.00362; solubility (mole fraction) (in n-octanol, 298.15 K): 0.00423; solubility (mole fraction) (in n-octanol, 303.15 K): 0.00511; solubility (mole fraction) (in n-octanol, 308.15 K): 0.0058; solubility (mole fraction) (in n-octanol, 313.15 K): 0.00664

**Q.** What does the source list for `Cc1cc(C)c(S(=O)(=O)NC23CC4CC(CC(C4)C2)C3)c(C)c1`?
**A.** solubility (mole fraction) (in n-hexane, 293.15 K): 0.000265; solubility (mole fraction) (in n-hexane, 298.15 K): 0.000307; solubility (mole fraction) (in n-hexane, 303.15 K): 0.000366; solubility (mole fraction) (in n-hexane, 308.15 K): 0.000444; solubility (mole fraction) (in n-hexane, 313.15 K): 0.000495; solubility (mole fraction) (in n-octanol, 293.15 K): 0.00383; solubility (mole fraction) (in n-octanol, 298.15 K): 0.00452; solubility (mole fraction) (in n-octanol, 303.15 K): 0.00562; solubility (mole fraction) (in n-octanol, 308.15 K): 0.0068; solubility (mole fraction) (in n-octanol, 313.15 K): 0.00809
